Values belong to the molecule of their own block, whether it stands above or below them.
Molecular target: T1, cynomolgus BK1-receptor (Macaca fascicularis, UniProt Q3BCU0)
T1 construct: expressed in transfected cells; host or cells: CHO cells (homogenate)
T1 sequence (Q3BCU0 1-352): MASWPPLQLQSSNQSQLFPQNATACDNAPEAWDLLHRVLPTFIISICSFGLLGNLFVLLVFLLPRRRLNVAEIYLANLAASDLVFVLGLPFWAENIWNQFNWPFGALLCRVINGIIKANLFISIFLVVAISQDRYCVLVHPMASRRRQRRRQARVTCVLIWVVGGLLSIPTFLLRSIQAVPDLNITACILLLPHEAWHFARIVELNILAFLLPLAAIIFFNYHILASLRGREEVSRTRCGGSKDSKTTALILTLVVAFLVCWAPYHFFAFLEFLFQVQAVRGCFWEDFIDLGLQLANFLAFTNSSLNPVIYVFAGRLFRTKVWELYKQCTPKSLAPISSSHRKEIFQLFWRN
Assay: cynoBK1-receptor binding assay
Conditions: CHO cells expressing cynomolgus BK1-receptor, radioligand kallidine (DesArg10,Leu9); for inhibition at 10 µM: at 10 μgmol/L
How it was run: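 Radioligand competition on homogenates of CHO cells expressing cynomolgus BK1 receptor (50 to 250 μg protein/assay), incubated 60-180 minutes at ambient temperature with 0.5 to 5.0 nM [3H]kallidine (DesArg10,Leu9) plus increasing test compound. Filtration binding; non-specific defined with 1.0 μM kallidine (DesArg10); Ki from non-linear curve fitting.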

Ki: 42 nM
SMILES: Cc1cncc(C(=O)NC2(C(=O)NCc3ccc(Nc4ccc(F)cc4C(F)(F)F)cn3)CC2)c1 [(302)]

Ki: 43 nM
SMILES: CNc1cncc(C(=O)N[C@@]2(C(=O)NCc3ncc(Nc4ccc(F)cc4C(F)(F)F)cc3F)CCOC2)c1 [(260)]

Ki: 17 nM
SMILES: CC(=O)Nc1ncc(C(=O)NC2(C(=O)NCc3ccc(Nc4ccc(F)cc4C(F)(F)F)cn3)CC2)s1 [(257)]

Ki: 95 nM
SMILES: Cn1cc(C(=O)NC2(C(=O)NCc3ccc(Nc4ccc(Cl)cc4C(F)(F)F)cn3)CC2)cn1 [(373)]

Ki: 17 nM
SMILES: O=C(NC1(C(=O)NCc2ccc(Nc3ccc(Cl)cc3C(F)(F)F)cn2)CC1)c1cncc(O)c1 [(205)]

Ki: 28 nM
SMILES: O=C(NC1(C(=O)NCc2ccc(Nc3ccc(F)cc3C(F)(F)F)cn2)CC1)c1cncc(O)c1 [(243)]

Ki: 72 nM
SMILES: N#Cc1ccc(C(=O)NC2(C(=O)NCc3ccc(Nc4ccc(F)cc4C(F)(F)F)cn3)CC2)cn1 [(256)]

Ki: 1.3 nM
SMILES: Cc1ncc(C(=O)NC2(C(=O)NCc3ccc(Nc4ccc(F)cc4C(F)(F)F)cc3F)CC2)cn1 [(283)]

Ki: 78 nM
SMILES: O=C(NC1(C(=O)NCc2ccc(Nc3ccc(Cl)cc3C(F)(F)F)cn2)CC1)c1ccc2[nH]cnc2c1 [(266)]

Ki: 33 nM
SMILES: CCNc1ncc(C(=O)N[C@@]2(C(=O)NCc3ccc(Nc4ccc(F)cc4C(F)(F)F)cc3)CCOC2)cn1 [(328)]

Ki: 30 nM
SMILES: Cc1ncc(C(=O)N[C@@]2(C(=O)NCc3ccc(Nc4ccc(Cl)cc4C(F)(F)F)cc3)CCOC2)cn1 [(317)]

Ki: 4.2 nM
SMILES: Nc1cncc(C(=O)N[C@@]2(C(=O)NCc3ccc(Nc4ccc(F)cc4C(F)(F)F)cc3F)CCOC2)c1 [(231)]

Ki: 41 nM
SMILES: O=C(N[C@@]1(C(=O)NCc2ccc(Nc3ccc(Cl)cc3C(F)(F)F)cc2)CCOC1)c1cncnc1 [(332)]

Ki: 57 nM
SMILES: Cc1ccc(C(=O)NC2(C(=O)NCc3ccc(Nc4ccc(Cl)cc4C(F)(F)F)cn3)CC2)cn1 [(312)]

Ki: 15 nM
SMILES: Cc1ncc(C(=O)NC2(C(=O)NCc3ccc(Nc4ccc(Cl)cc4C(F)F)cn3)CC2)cn1 [(386)]

inhibition at 10 µM: 100%
SMILES: O=C(NC1(C(=O)NCc2ncc(Nc3ccc(F)cc3C(F)(F)F)cc2Cl)CC1)c1cncnc1 [(187)]

Ki: 105 nM
SMILES: O=C(NC1(C(=O)NCc2ccc(Nc3ccc(Br)cc3C(F)(F)F)cn2)CC1)c1ccc(O)nc1 [(234)]

Ki: 89 nM
SMILES: COc1ncc(C(=O)N[C@@]2(C(=O)NCc3ccc(Nc4ccc(Cl)cc4C(F)(F)F)cc3)CCOC2)cn1 [(333)]

Ki: 21 nM
SMILES: O=C(NC1(C(=O)NCc2ccc(Nc3ccc(F)cc3C(F)(F)F)cn2)CC1)c1cnc(C(F)(F)F)nc1 [(246)]

Ki: 175 nM
SMILES: O=C(NC1(C(=O)NCc2ccc(Nc3ccc(F)cc3C(F)(F)F)cn2)CC1)c1cnc(N2CCCC2)nc1 [(250)]

Ki: 31 nM
SMILES: N#Cc1ccccc1Nc1cnc(CNC(=O)C2(NC(=O)c3cncnc3)CC2)c(F)c1 [(295)]

Ki: 1.6 nM | inhibition at 10 µM: 106%
SMILES: CC(NC(=O)C1(NC(=O)c2cncnc2)CC1)c1ccc(Nc2ccc(Br)cc2C(F)(F)F)cn1 (centres unmarked) [(180)]

Ki: 43 nM | inhibition at 10 µM: 92%
SMILES: CC(NC(=O)[C@]1(NC(=O)c2cncnc2)CCOC1)c1ccc(Nc2ccc(Br)cc2C(F)(F)F)cn1 (some centres unmarked) [(188)]

Ki: 10 nM
SMILES: Cc1ncc(C(=O)N[C@@]2(C(=O)NCc3ncc(Nc4ccc(F)cc4C(F)(F)F)cc3C)CCOC2)cn1 [(387)]

inhibition at 10 µM: 99%
SMILES: Cn1ccc(C(=O)NC2(C(=O)NCc3ccc(Nc4ccc(Br)cc4C(F)(F)F)cn3)CC2)cc1=O [(177)]

Ki: 6.1 nM
SMILES: COc1ncc(C(=O)N[C@@]2(C(=O)NCc3ncc(Nc4ccc(F)cc4C(F)(F)F)cc3Cl)CCOC2)cn1 [(230)]

Ki: 5.5 nM
SMILES: Cc1ncc(C(=O)NC2(C(=O)NCc3ncc(Nc4ccccc4C(F)(F)F)cc3C)CC2)cn1 [(374)]

Ki: 349 nM
SMILES: CNc1cncc(C(=O)N[C@@]2(C(=O)NCc3ccc(Nc4ccc(F)cc4C(F)(F)F)cn3)CCOC2)c1 [(311)]

Ki: 3.7 nM
SMILES: Nc1cncc(C(=O)NC2(C(=O)NCc3ncc(Nc4ccc(F)cc4C(F)(F)F)cc3Cl)CC2)c1 [(218)]

Ki: 405 nM
SMILES: CC(=O)Nc1cncc(C(=O)NC2(C(=O)NCc3ccc(Nc4ccc(Cl)cc4C(F)(F)F)cn3)CC2)c1 [(275)]

Ki: 45 nM
SMILES: CNc1ccc(C(=O)NC2(C(=O)NCc3ccc(Nc4ccc(F)cc4C(F)(F)F)cn3)CC2)cn1 [(377)]

Ki: 21 nM
SMILES: CNc1ncc(C(=O)N[C@@]2(C(=O)NCc3ccc(Nc4ccc(F)cc4C(F)(F)F)cc3)CCOC2)cn1 [(289)]

Ki: 24 nM
SMILES: CCNc1ccc(C(=O)NC2(C(=O)NCc3ccc(Nc4ccc(Cl)cc4C(F)(F)F)cn3)CC2)cn1 [(329)]

Ki: 35 nM
SMILES: CCCNc1ccc(C(=O)NC2(C(=O)NCc3ccc(Nc4ccc(Cl)cc4C(F)(F)F)cn3)CC2)cn1 [(330)]

Ki: 37 nM
SMILES: O=C(NC1(C(=O)NCc2ccc(Nc3ccc(Cl)cc3C(F)(F)F)cn2)CC1)c1cnsc1 [(358)]

Ki: 59 nM
SMILES: Nc1ccc(C(=O)N[C@@]2(C(=O)NCc3ncc(Nc4ccc(Cl)cc4C(F)(F)F)cc3Cl)CCOC2)cn1 [(297)]

Ki: 0.7 nM
SMILES: Cc1ncc(C(=O)NC2(C(=O)NCc3ncc(Nc4ccc(F)cc4C(F)(F)F)cc3F)CC2)cn1 [(298)]

Ki: 58 nM
SMILES: CNc1cncc(C(=O)N[C@@]2(C(=O)NCc3ncc(Nc4ccc(Cl)cc4C(F)(F)F)cc3F)CCOC2)c1 [(319)]

Ki: 68 nM
SMILES: O=C(CC(F)(F)F)N[C@@]1(C(=O)NCc2ncc(Nc3ccc(F)cc3C(F)(F)F)cc2Cl)CCOC1 [(225)]

Continued, molecule first:

SMILES: Nc1ccc(C(=O)NC2(C(=O)NCc3ccc(Nc4ccc(Br)cc4C(F)(F)F)cn3)CC2)cn1 [(173)]
Ki: 2.7 nM | inhibition at 10 µM: 105%

SMILES: CC(NC(=O)C1(NC(=O)c2cncnc2)CC1)c1ccc(Nc2c(F)cccc2C(F)(F)F)cn1 (centres unmarked) [(123)]
Ki: 8.3 nM | inhibition at 10 µM: 110%

SMILES: Cn1ccc(C(=O)N[C@@]2(C(=O)NCc3ccc(Nc4ccccc4C(F)(F)F)cc3)CCOC2)cc1=O [(84)]
Ki: 90 nM | inhibition at 10 µM: 104%

SMILES: CS(=O)(=O)c1ccc(Nc2ccc(CNC(=O)C3(NC(=O)c4cncnc4)CC3)cc2)c(C(F)(F)F)c1 [(32)]
Ki: 200 nM | inhibition at 10 µM: 93%

SMILES: COc1cncc(C(=O)N[C@@]2(C(=O)NCc3ccc(Nc4ccccc4C(F)(F)F)cc3)CCOC2)c1 [(92)]
Ki: 62 nM | inhibition at 10 µM: 110%

SMILES: O=C(NC1(C(=O)NCc2ccc(Nc3ccc(Br)cc3C(F)(F)F)cn2)CC1)c1cncnc1 [(54)]
Ki: 3.8 nM | inhibition at 10 µM: 112%

SMILES: O=C(NC1(C(=O)NCc2ccc(Nc3ccc(Br)cc3C(F)(F)F)cn2)CC1)c1ccnc(O)c1 [(171)]
inhibition at 10 µM: 97%

SMILES: O=C(NC1(C(=O)NCc2ccc(Nc3ccc(Br)cc3C(F)(F)F)cn2)CC1)c1cc(O)nc(O)n1 [(176)]
inhibition at 10 µM: 100%

SMILES: CC(C(=O)N[C@@]1(C(=O)NCc2ccc(Nc3ccccc3C(F)(F)F)cc2)CCOC1)C(F)(F)F (some centres unmarked) [(91)]
inhibition at 10 µM: 100%

SMILES: O=C(NC1(C(=O)NCc2ccc(Nc3ccccc3C(F)(F)F)cc2)CC1)c1ccccc1 [(20)]
inhibition at 10 µM: 81%

SMILES: O=C(N[C@@]1(C(=O)NCc2ccc(Nc3ccccc3C(F)(F)F)cc2)CCOC1)c1ccc(=O)[nH]n1 [(62)]
inhibition at 10 µM: 60%

SMILES: O=C(NC1(C(=O)NCc2ccc(Nc3ccccc3C(F)(F)F)cc2)CC1)c1ccno1 [(24)]
inhibition at 10 µM: 107%

SMILES: O=C(N[C@@]1(C(=O)NCc2ccc(Nc3ccccc3C(F)(F)F)cc2)CCOC1)c1cncc(O)c1 [(87)]
inhibition at 10 µM: 112%

SMILES: N#C/C(=N\O)C(=O)N[C@@]1(C(=O)NCc2ccc(Nc3ccccc3C(F)(F)F)cc2)CCOC1 [(66)]
inhibition at 10 µM: 81%

SMILES: CC(NC(=O)C1(NC(=O)c2cncnc2)CC1)c1ccc(Nc2ccccc2C(F)(F)F)cn1 (centres unmarked) [(40)]
Ki: 2.9 nM | inhibition at 10 µM: 110%

SMILES: COc1ncc(C(=O)N[C@@]2(C(=O)NCc3ccc(Nc4ccccc4C(F)(F)F)cc3)CCOC2)cn1 [(81)]
inhibition at 10 µM: 113%

SMILES: O=C(N[C@@]1(C(=O)NCc2ncc(Nc3c(F)cccc3C(F)(F)F)cc2F)CCOC1)c1cncnc1 [(158)]
Ki: 115 nM | inhibition at 10 µM: 101%

SMILES: CN(C)CC(=O)NC1(C(=O)NCc2ccc(Nc3ccccc3C(F)(F)F)cc2)CC1 [(12)]
inhibition at 10 µM: 78%

SMILES: O=C(NC1(C(=O)NCc2ccc(Nc3cc(F)ccc3C(F)(F)F)cn2)CC1)c1cncnc1 [(42)]
inhibition at 10 µM: 89%

SMILES: O=C1CCC(C(=O)NC2(C(=O)NCc3ccc(Nc4ccccc4C(F)(F)F)cc3)CC2)N1 (centres unmarked) [(5)]
inhibition at 10 µM: 88%

SMILES: O=C(NC1(C(=O)NCc2ncc(Nc3c(F)cccc3C(F)(F)F)cc2F)CC1)c1ccnc(O)c1 [(130)]
Ki: 101 nM | inhibition at 10 µM: 101%

SMILES: CC(C)Oc1ccc(Nc2ccc(CNC(=O)C3(NC(=O)c4cncnc4)CC3)cc2)c(C(F)(F)F)c1 [(119)]
Ki: 375 nM | inhibition at 10 µM: 82%

SMILES: O=C(NC1(C(=O)NCc2ccc(Nc3ccc(F)cc3C(F)(F)F)cc2)CC1)c1cncnc1 [(33)]
Ki: 1.9 nM | inhibition at 10 µM: 110%

SMILES: O=C(NC1(C(=O)NCc2ccc(Nc3ccccc3C(F)(F)F)cn2)CC1)c1cncnc1 [(39)]
Ki: 5.5 nM | inhibition at 10 µM: 110%

SMILES: CC(NC(=O)C1(NC(=O)c2cncc(N)c2)CC1)c1ccc(Nc2c(F)cccc2C(F)(F)F)cn1 (centres unmarked) [(124)]
Ki: 33 nM | inhibition at 10 µM: 112%

SMILES: O=C(NC1(C(=O)NCc2ncc(Nc3c(F)cccc3C(F)(F)F)cc2F)CC1)c1cncs1 [(135)]
Ki: 15 nM | inhibition at 10 µM: 106%

SMILES: O=C(NC1(C(=O)NCc2ncc(Nc3c(F)cccc3C(F)(F)F)cc2F)CC1)c1ccnnc1 [(128)]
Ki: 84 nM | inhibition at 10 µM: 103%
